Experimental data as given in ChEMBL document CHEMBL4014354, “2'-Chloro,2'-fluoro Ribonucleotide Prodrugs with Potent Pan-genotypic Activity against Hepatitis C Virus Replication in Culture” (J Med Chem, 2017).

Key:
[1] = Inhibition of C-terminal His-tagged HCV genotype 1b NS5Bdelta21 expressed in Escherichia coli BL21 (DE3) using synthetic 20mer RNA/[32P]GpG as template/primer after 90 mins by PAGE analysis; set-up: species or system Hepatitis C virus subtype 1b
[2] = Inhibition of RNA polymerase 2 isolated from human HeLa cell nuclear extract assessed as decrease in incorporation of P32-alpha-CTP after 2 hrs by scintillation counting method; assay type: cell-free
[3] = Inhibition of human DNA polymerase gamma using 5' end radiolabeled 24nt DNA/36nt DNA as primer/template after 120 mins by PAGE analysis
[4] = target: DNA polymerase beta (Homo sapiens, UniProt P06746); assay: Inhibition of human DNA polymerase beta using 5' end radiolabeled 24nt DNA/48nt DNA as primer/template after 5 mins by PAGE analysis
[5] = Inhibition of HCV genotype 1b NS5B S96T mutant; set-up: species or system Hepatitis C virus subtype 1b
[6] = Inhibition of wild type HCV genotype 2a NS5B; set-up: species or system Hepatitis C virus subtype 2a
[7] = Inhibition of wild type HCV genotype 4a NS5B; set-up: species or system Hepatitis C virus subtype 4a
[8] = target: DNA-directed RNA polymerase, mitochondrial (Homo sapiens) (UniProt O00411); assay: Inhibition of human POLRMT using 5'-P32-RNA/DNA hybrid assessed as incorporation of UTP at 100 uM after 2 hrs by scintillation counting method relative to control; set-up: scale not given: the % may be the effect or the level left
Sequence of DNA-directed RNA polymerase, mitochondrial (Homo sapiens) (O00411 whole entry): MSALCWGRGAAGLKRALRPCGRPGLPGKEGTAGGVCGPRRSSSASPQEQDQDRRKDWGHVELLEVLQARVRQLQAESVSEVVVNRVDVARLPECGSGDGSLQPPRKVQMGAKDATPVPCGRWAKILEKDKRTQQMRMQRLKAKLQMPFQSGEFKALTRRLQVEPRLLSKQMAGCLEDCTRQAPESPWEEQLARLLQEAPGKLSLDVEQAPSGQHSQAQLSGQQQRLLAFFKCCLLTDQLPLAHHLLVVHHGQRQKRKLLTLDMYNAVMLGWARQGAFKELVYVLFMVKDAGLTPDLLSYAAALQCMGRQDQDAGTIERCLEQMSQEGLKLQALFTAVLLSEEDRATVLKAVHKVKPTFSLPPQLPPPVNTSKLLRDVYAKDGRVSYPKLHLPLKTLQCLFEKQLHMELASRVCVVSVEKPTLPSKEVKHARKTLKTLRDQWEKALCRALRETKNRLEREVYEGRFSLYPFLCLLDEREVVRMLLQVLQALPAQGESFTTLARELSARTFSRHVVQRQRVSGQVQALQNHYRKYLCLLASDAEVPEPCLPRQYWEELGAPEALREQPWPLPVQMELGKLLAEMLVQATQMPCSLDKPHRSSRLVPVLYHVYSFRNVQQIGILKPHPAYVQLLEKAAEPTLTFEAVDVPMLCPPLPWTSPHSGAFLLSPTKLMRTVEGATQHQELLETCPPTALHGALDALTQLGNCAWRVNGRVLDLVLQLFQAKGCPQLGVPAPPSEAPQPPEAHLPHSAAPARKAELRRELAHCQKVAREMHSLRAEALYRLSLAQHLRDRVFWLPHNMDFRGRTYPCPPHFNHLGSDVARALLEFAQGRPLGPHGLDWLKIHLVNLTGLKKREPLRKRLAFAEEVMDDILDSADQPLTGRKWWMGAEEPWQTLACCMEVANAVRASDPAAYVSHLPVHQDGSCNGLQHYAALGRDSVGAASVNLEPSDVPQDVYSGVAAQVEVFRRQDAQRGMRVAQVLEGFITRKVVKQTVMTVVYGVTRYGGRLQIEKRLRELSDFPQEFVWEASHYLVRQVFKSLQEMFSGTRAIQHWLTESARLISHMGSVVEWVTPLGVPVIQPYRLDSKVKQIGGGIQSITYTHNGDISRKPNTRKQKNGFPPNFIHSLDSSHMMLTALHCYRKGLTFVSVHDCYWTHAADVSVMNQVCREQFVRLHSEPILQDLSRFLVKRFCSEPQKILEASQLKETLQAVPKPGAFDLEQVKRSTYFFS

[9] = target: T1, DNA polymerase alpha catalytic subunit (Homo sapiens, UniProt P09884); assay: Inhibition of human DNA polymerase alpha using 5' end radiolabeled 24nt DNA/48nt DNA as primer/template after 5 mins by PAGE analysis
T1 sequence (P09884 whole entry): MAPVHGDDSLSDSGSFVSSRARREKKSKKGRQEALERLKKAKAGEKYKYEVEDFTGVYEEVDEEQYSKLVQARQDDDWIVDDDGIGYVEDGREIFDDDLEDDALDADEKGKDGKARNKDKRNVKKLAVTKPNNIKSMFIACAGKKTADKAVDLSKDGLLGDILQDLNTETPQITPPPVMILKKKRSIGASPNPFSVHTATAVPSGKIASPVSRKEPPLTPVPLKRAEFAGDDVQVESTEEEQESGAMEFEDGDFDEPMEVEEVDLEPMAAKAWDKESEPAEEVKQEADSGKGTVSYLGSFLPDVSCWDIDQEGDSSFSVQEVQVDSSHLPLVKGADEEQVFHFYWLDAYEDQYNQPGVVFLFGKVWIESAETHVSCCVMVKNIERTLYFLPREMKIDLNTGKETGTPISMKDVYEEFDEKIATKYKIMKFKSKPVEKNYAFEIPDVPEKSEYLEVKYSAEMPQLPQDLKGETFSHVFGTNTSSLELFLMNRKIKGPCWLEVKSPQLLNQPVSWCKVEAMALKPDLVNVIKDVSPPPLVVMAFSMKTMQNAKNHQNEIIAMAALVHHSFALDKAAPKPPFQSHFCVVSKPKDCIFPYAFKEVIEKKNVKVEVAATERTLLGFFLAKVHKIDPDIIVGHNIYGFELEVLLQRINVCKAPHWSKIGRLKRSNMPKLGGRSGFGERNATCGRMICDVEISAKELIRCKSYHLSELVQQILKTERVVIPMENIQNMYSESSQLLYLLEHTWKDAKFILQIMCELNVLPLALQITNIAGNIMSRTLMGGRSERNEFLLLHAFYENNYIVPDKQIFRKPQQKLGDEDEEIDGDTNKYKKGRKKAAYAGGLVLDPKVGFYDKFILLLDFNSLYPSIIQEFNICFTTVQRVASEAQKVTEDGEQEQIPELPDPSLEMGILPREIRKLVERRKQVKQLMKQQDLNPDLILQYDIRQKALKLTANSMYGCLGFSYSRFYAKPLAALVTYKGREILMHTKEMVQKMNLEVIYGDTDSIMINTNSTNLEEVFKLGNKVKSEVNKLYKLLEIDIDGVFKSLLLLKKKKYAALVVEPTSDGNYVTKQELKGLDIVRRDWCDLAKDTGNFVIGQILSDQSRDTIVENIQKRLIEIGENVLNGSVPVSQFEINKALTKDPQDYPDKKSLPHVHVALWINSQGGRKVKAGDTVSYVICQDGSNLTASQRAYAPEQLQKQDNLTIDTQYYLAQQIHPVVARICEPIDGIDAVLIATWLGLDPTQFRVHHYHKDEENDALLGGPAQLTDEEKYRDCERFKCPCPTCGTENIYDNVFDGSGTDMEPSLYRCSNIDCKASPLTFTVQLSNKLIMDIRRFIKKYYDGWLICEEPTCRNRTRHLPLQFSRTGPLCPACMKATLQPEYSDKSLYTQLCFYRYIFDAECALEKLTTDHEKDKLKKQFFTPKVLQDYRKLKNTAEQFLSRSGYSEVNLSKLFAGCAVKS

[10] = target: Cytochrome P450 2D6 (Homo sapiens, UniProt P10635); assay: Inhibition of human CYP2D6 using quinidine […]; assay type: ADME
Sequence of Cytochrome P450 2D6 (P10635 whole entry): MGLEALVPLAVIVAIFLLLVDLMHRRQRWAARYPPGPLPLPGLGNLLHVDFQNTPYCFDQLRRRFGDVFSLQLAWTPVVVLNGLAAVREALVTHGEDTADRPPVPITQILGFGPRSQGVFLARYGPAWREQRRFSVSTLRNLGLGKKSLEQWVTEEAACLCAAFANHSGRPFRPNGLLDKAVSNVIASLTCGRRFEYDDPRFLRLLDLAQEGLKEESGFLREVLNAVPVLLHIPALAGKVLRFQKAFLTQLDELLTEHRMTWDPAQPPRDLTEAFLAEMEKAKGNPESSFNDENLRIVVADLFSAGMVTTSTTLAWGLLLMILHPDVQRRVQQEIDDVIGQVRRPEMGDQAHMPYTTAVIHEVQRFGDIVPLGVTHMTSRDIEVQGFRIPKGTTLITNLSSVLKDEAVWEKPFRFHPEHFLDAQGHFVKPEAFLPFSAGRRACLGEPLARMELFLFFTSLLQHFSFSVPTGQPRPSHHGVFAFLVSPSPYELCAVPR

[11] = test system: nuclear DNA levels; assay: in vitro; details: human, HepG2 cells
[12] = Cytotoxicity against human HuH7 cells assessed as inhibition of cell proliferation after 4 days by MTS assay; assay type: cell-based, Huh-7
[13] = test system: Hepatitis C virus; assay: Antiviral activity against HCV genotype 1b harboring wild type NS5B infected in human HuH7 cells assessed as inhibition of viral RNA replication after 5 days by RT-PCR method; assay type: functional, cell-based, Hepacivirus hominis; details: Huh-7, 120 h
[14] = test system: Hepatitis C virus; assay: Antiviral activity against HCV genotype 2b infected in human HuH7 cells assessed as inhibition of viral RNA replication after 96 hrs by RT-PCR method; assay type: functional, cell-based, Hepacivirus hominis; details: Huh-7, 96 h
[15] = test system: HepG2; assay: Mitochondrial toxicity in human HepG2 cells assessed as cytochrome c oxidase subunit 2 DNA levels at 50 uM measured on day 14 by RT-PCR method relative to nuclear beta-actin DNA levels; assay type: cell-based; details: hepg2, 50 µM
[16] = test system: Hepatitis C virus; assay: Antiviral activity against HCV genotype 1b infected in human HuH7 cells assessed as inhibition of viral RNA replication after 96 hrs by RT-PCR method; assay type: functional, cell-based, Hepacivirus hominis; details: Huh-7, 96 h
[17] = test system: Hepatitis C virus; assay: Antiviral activity against HCV genotype 2a/k infected in human HuH7 cells assessed as inhibition of viral RNA replication after 96 hrs by RT-PCR method; assay type: functional, cell-based, Hepacivirus hominis; details: Huh-7, 96 h
[18] = Cytotoxicity against human CEM cells assessed as inhibition of cell proliferation after 4 days by MTT assay; assay type: cell-based, CCRF-CEM
[19] = test system: cytochrome c oxidase subunit 2 DNA (mitochondrial DNA) levels; assay: in vitro; details: human, HepG2 cells
[20] = test system: Hepatitis C virus; assay: Antiviral activity against HCV genotype 4 infected in human HuH7 cells assessed as inhibition of viral RNA replication after 96 hrs by RT-PCR method; assay type: functional, cell-based, Hepacivirus hominis; details: genotype 4, Huh-7, 96 h
[21] = test system: Hepatitis C virus; assay: Antiviral activity against HCV genotype 3a infected in human HuH7 cells assessed as inhibition of viral RNA replication after 96 hrs by RT-PCR method; assay type: functional, cell-based, Hepacivirus hominis; details: Huh-7, 96 h
[22] = test system: Hepatitis C virus; assay: Antiviral activity against HCV genotype 1b harboring NS5B S282T mutant infected in human HuH7 cells assessed as inhibition of viral RNA replication after 4 days by luciferase reporter gene assay; assay type: functional, cell-based, Hepacivirus hominis; details: Huh-7, 96 h
[23] = test system: cytochrome c oxidase subunit 2 DNA (mitochondrial DNA) levels; assay: Mitochondrial toxicity in human HepG2 cells assessed as inhibition of cytochrome c oxidase subunit 2 DNA levels measured on day 14 by RT-PCR method; assay type: cell-based
[24] = target: Cytochrome P450 3A4 (Homo sapiens, UniProt P08684); assay: Inhibition of human CYP3A4 using ketoconazole […]; assay type: ADME
Sequence of Cytochrome P450 3A4 (P08684 whole entry): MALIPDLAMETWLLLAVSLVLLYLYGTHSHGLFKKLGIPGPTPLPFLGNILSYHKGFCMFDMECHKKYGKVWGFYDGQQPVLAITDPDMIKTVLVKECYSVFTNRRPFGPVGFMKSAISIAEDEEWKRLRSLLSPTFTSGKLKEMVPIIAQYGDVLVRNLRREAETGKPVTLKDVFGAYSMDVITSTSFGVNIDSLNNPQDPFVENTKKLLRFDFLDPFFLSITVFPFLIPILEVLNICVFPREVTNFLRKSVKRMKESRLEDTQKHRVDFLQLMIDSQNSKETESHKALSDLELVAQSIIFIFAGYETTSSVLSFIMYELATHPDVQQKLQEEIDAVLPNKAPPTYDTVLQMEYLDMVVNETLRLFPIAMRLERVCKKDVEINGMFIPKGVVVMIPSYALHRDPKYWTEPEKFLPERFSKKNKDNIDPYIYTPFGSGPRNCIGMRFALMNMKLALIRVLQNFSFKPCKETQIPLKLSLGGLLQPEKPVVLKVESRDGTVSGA

[25] = test system: Hepatitis C virus; assay: Selectivity ratio of EC50 for HCV genotype 1b harboring NS5B S282T mutant to EC50 for HCV genotype 1b harboring wild type NS5B; assay type: functional, Hepacivirus hominis
[26] = test system: HepG2; assay: Mitochondrial toxicity in human HepG2 cells assessed as cytochrome c oxidase subunit 2 DNA levels at 10 uM measured on day 14 by RT-PCR method relative to nuclear beta-actin DNA levels; details: hepg2, 10 µM
[27] = target: T2, Cytochrome P450 1A2 (Homo sapiens, UniProt P05177); assay: Inhibition of human CYP1A2 using alpha-naphthoflavone […]; assay type: ADME
T2 sequence (P05177 whole entry): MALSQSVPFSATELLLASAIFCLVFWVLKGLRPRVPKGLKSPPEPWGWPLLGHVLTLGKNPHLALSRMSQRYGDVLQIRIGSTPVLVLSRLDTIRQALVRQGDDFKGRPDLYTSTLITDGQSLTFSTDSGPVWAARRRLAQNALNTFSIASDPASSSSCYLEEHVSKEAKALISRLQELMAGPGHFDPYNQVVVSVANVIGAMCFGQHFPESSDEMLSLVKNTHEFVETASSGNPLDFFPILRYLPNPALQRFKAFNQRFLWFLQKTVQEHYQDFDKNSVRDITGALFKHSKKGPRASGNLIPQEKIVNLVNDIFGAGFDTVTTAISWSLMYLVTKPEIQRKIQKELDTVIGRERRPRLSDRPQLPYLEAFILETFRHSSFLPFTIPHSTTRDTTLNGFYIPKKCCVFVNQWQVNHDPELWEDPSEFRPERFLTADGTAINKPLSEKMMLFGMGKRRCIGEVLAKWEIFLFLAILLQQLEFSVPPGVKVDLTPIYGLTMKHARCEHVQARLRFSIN

[28] = target: Cytochrome P450 2C9 (Homo sapiens, UniProt P11712); assay: Inhibition of human CYP2C9 using sulfaphenazole […]; assay type: ADME
Sequence of Cytochrome P450 2C9 (P11712 whole entry): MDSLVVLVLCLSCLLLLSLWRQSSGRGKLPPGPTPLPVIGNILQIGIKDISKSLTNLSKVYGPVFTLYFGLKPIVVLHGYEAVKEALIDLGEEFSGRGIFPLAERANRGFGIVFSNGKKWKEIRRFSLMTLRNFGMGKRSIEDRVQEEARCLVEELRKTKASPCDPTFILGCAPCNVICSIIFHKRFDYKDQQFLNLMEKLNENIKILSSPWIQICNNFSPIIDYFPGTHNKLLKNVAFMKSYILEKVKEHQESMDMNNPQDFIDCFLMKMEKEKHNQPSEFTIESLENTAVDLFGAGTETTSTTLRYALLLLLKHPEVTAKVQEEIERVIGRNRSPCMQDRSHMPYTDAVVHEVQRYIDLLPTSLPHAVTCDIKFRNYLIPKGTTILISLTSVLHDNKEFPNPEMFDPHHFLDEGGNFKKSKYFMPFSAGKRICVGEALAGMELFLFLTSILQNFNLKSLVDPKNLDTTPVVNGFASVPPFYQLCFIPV

[29] = test system: cytochrome c oxidase subunit 2 DNA (mitochondrial DNA) levels; assay: Mitochondrial toxicity in human HepG2 cells assessed as inhibition of cytochrome c oxidase subunit 2 DNA levels at 25 uM measured on day 14 by RT-PCR method relative to nuclear beta-actin DNA levels; assay type: cell-based
[30] = test system: HepG2; assay: Cytotoxicity against human HepG2 cells assessed as inhibition of nuclear DNA levels measured on day 14 by RT-PCR method; details: HepG2, 336 h
[31] = Cytotoxicity against human PBMC assessed as inhibition of cell proliferation after 5 days by MTT assay; assay type: cell-based
[32] = test system: cytochrome c oxidase subunit 2 DNA (mitochondrial DNA) levels; assay: Mitochondrial toxicity in human HepG2 cells assessed as inhibition of cytochrome c oxidase subunit 2 DNA levels at 50 uM measured on day 14 by RT-PCR method relative to nuclear beta-actin DNA levels; assay type: cell-based
[33] = test system: Hepatitis C virus; assay: Selectivity ratio of EC90 for HCV genotype 1b harboring NS5B S282T mutant to EC90 for HCV genotype 1b harboring wild type NS5B; assay type: functional, Hepacivirus hominis
[34] = test system: HepG2; assay: Mitochondrial toxicity in human HepG2 cells assessed as cytochrome c oxidase subunit 2 DNA levels at 25 uM measured on day 14 by RT-PCR method relative to nuclear beta-actin DNA levels; assay type: cell-based; details: hepg2, 25 µM
[35] = test system: nuclear DNA levels; assay: Cytotoxicity against human HepG2 cells assessed as inhibition of nuclear DNA levels at 50 uM measured on day 14 by RT-PCR method relative to nuclear beta-actin DNA levels; assay type: cell-based; details: read-out: INH
[36] = test system: Hepatitis C virus; assay: Antiviral activity against HCV genotype 1a infected in human HuH7 cells assessed as inhibition of viral RNA replication after 96 hrs by RT-PCR method; assay type: functional, cell-based, Hepacivirus hominis; details: subtype 1a, Huh-7, 96 h
[37] = test system: nuclear DNA levels; assay: Cytotoxicity against human HepG2 cells assessed as inhibition of nuclear DNA levels at 25 uM measured on day 14 by RT-PCR method relative to nuclear beta-actin DNA levels; assay type: cell-based; details: read-out: INH
[38] = Cytotoxicity against African green monkey Vero cells assessed as inhibition of cell proliferation after 3 days by MTT assay; assay type: cell-based; details: chlorocebus sabaeus

O=c1ccn([C@@H]2O[C@H](COP(=O)(O)OP(=O)(O)OP(=O)(O)O)C(O)C2(F)Cl)c(=O)[nH]1 (single isomer, unassigned)
IC50 [1]: 5.5 µM
IC50 [2]: > 100 µM
IC50 [3]: > 100 µM
IC50 [4]: > 100 µM
IC50 [5]: 13 µM
IC50 [6]: 6.1 µM
IC50 [7]: 8.6 µM
Activity [8]: 35%
IC50 [9]: 20.2 µM

CC(C)OC(=O)[C@H](C)N[P@](=O)(OC[C@H]1O[C@@H](n2ccc(=O)[nH]c2=O)[C@](C)(F)[C@@H]1O)Oc1ccccc1 [SOFOSBUVIR]
IC50 [10]: > 100 µM
cytotoxicity at 14 days, 10 µM [11]: 7.3%
CC50 at 96 h [12]: > 10 µM
EC50 [13]: 0.09 to 0.2 µM
EC90 [13]: 0.3 to 0.5 µM
IC50 [14]: 0.04 µM
Activity [15]: 255%
IC50 [16]: 0.06 µM
IC50 [17]: 0.02 µM
CC50 at 96 h [18]: > 100 µM
inhibition at 14 days, 10 µM [19]: < 1%
IC50 [20]: 0.07 µM
IC50 [21]: 0.09 µM
EC50 [22]: 0.4 µM
EC90 [22]: 1 µM
IC50 at 14 days [23]: > 50 µM
IC50 [24]: 8.4 µM
Ratio EC50 [25]: 4.4
Activity [26]: 176%
IC50 [27]: > 100 µM
IC50 [28]: 60 µM
inhibition at 14 days, 25 µM [29]: < 1%
IC50 [30]: > 50 µM
CC50 at 120 h [31]: > 100 µM
inhibition at 14 days, 50 µM [32]: < 1%
Selectivity ratio [33]: 3
Activity [34]: 187%
cytotoxicity at 14 days, 50 µM [35]: 38.8%
IC50 [36]: 0.06 µM
cytotoxicity at 14 days, 25 µM [37]: 38.3%
CC50 at 72 h [38]: > 100 µM
